Laboratory results from patent US20230060350A1, “BACTERICIDAL COMPOSITION FOR CONTROLLING GUMMY STEM BLIGHT OF MELONS” (Institute of Plant Protection and Agro-products Safety, …, priority 2022, published 2023).

Key:
[1] = test system: gummy stem blight of Trichosanthes kirilowii maxim; test: Field control experiment on gummy stem blight of Trichosanthes kirilowii maxim; type: in vivo
Text: Embodiment 3: Field Control Experiment of Pydiflumetofen and the Thifluzamide on Gummy Stem Blight of Trichosanthes kirilowii maxim
Control tests of gummy stem blight of Trichosanthes kirilowii maxim were respectively conducted in 2020 and 2021. Test data in 2021 were collected as follows: the 20% Pydiflumetofen·Thifluzamide suspension, 20% Pydiflumetofen suspension, 30% Thifluzamide suspension and 25% Azoxystrobin suspension in embodiment 2 were respectively used in the experiment. The variety of the tested Trichosanthes kirilowii maxim was “Wanlou 9”; the test location was a Trichosanthes kirilowii maxim field in Gangji experimental production base in Anhui Academy of Agricultural Sciences; water consumption per mu was 30 kg; the Trichosanthes kirilowii maxim was subjected to agent control at an early stage of growing and flowering (May 20); and disease condition survey was conducted within 30 days (Table 2).

[2] = test system: Stagonosporopsis cucurbitacearum; test: Indoor toxicity test, hypha growth assay on drug-containing PDA plates; type: cell-based; conditions: hypha growth inhibition, 25° C.
Experimental: Embodiment 1 Indoor toxicity test of Pydiflumetofen and the Thifluzamide on Stagonosporopsis cucurbitacearum
Bactericidal properties of the Pydiflumetofen and the Thifluzamide were analyzed in detail. EC50 […] of two single components such as the Pydiflumetofen and the Thifluzamide (hereinafter referred to as agents) was tested first; a combination ratio of the two agents was set by a Wadley method according to the EC50 of the two single agents, and according to a Wadley synergistic coefficient SR value.
A test object was Stagonosporopsis cucurbitacearum of melons, but was not limited herein. […] Hypha growth assay was adopted during the test; drug containing media were prepared according to different treatments; hypha blocks having a diameter of 5 mm were prepared on the edges of the pre-culture colonies by using the sterilized puncher and respectively transferred onto medium plates with different drug content; a colony diameter was tested by a crossing method; the colony diameter (mm) was measured; and a growth inhibition ratio was calculated by the following formula: […]
Interaction of the mixture was evaluated according to the Wadley method; and a calculation formula was as follows: […]
In the formula, a and b were content ratios of various components in the mixture; and a mixing effect was analyzed based on the value SR.

[3] = test system: gummy stem blight of the watermelon; test: Greenhouse control experiment on gummy stem blight of watermelon; type: in vivo
Text: Embodiment 4: Field Control Experiment of Pydiflumetofen and the Thifluzamide on Gummy Stem Blight of Watermelon Control tests of gummy stem blight of watermelons were respectively conducted in 2020 and 2021. Test data in 2021 were collected as follows: the 18% Pydiflumetofen·Thifluzamide water dispersible granules, 20% Pydiflumetofen suspension, 30% Thifluzamide suspension and 25% Azoxystrobin suspension in embodiment 1 were respectively used in the experiment. The variety of the tested watermelon was “Zaojia 8424”; the test location was a watermelon greenhouse in Gangji experimental production base in Anhui Academy of Agricultural Sciences; water consumption per mu was 30 kg; the watermelons were subjected to agent control for the first time within 30 days after field planting of watermelon seedlings, and then subjected to agent control for the second time within 10 days after the first control; and disease condition survey was conducted within 30 days after the second agent control (Table 3).

CON(C(=O)c1cn(C)nc1C(F)F)C(C)Cc1c(Cl)cc(Cl)cc1Cl (racemic) [Pydiflumetofen, 3-(difluoromethyl)-N-methoxy-1-methyl-N-[(RS)-1-methyl-2-(2,4,6-trichlorophenyl)ethyl]pyrazol-4-formamide]
Control effect (in words) [1]: significant control effects | EC50 [2]: 0.0109 ppm | Control effect (in words) [3]: significant control effects

Cc1nc(C(F)(F)F)c(C(=O)Nc2c(Br)cc(OC(F)(F)F)cc2Br)s1 [Thifluzamide]
Control effect (in words) [1]: significant control effects | EC50 [2]: 0.0451 ppm | Control effect (in words) [3]: significant control effects
